Experimental data taken from patent publication US20130150399A1, “INHIBITORS OF THE UNFOLDED PROTEIN RESPONSE AND METHODS FOR THEIR USE” (The Board of Trustees of the Leland Stanford Junior …, priority 2006, published 2013).

Legend:
Format in all cases: cell-based, human
XBP-1s = test: Western immunoblot of XBP-1s, HT1080 cells
Experimental: Cells were harvested, lysed, and analyzed by Western blot using anti-XBP-1 antisera (lower panel) or anti-HIF-1 antisera (top panel) to confirm hypoxia exposure.
Cells (2×10^6) were cultured in 10-cm dishes, collected using a cell scraper at 4° C., and lysed by addition of 150 μl cell lysis buffer [50 mM Tris pH 7.4, 150 mM NaCl, 10% glycerol, 0.5% Triton X-100. 0.5% NP-40, 2 mM Na3VO4, 20 mM beta-glycerophosphate, 10 mM NaF, 1 mM DTT, 1 mM PMSF). Lysates were centrifuged for 5 min at 10,000×g, and proteins (˜40 μg) were resolved by SDS-PAGE followed by semi-dry transfer to nitrocellulose membranes. Membranes were blocked in TBS-5% milk supplemented with 0.1% Tween-20. […] After washing in block solution, immunoreactive material was detected by enhanced chemiluminescence (SuperSignal West Dura Extended, Pierce, Inc., Rockville, Ill.).
(§1) A. XBP-luciferase reporter construct. […] After 24 hours, luciferase activity was analyzed in an automated plate reader. For each cell line, values are expressed as the percent inhibition of the median for Tm/Tg-treated wells, corrected for background. […] Values are expressed as the fold increases over uninduced levels. […] Cells were harvested, lysed, and analyzed by immunoblotting with antisera specific for HIF-1α (top), XBP-1s (middle) or actin (bottom). […] Total RNA was analyzed by Northern blotting using radiolabeled probes specific for P58^IPK or DER-1. […]

HIF-1α = test: Western immunoblot of HIF-1α, HT1080 cells under hypoxia; conditions: 2 μM; 24 hours of hypoxia
Experimental: (§2) Cells (2×10^6) were cultured in 10-cm dishes, collected using a cell scraper at 4° C., and lysed by addition of 150 μl cell lysis buffer [50 mM Tris pH 7.4, 150 mM NaCl, 10% glycerol, 0.5% Triton X-100. 0.5% NP-40, 2 mM Na3VO4, 20 mM beta-glycerophosphate, 10 mM NaF, 1 mM DTT, 1 mM PMSF). Lysates were centrifuged for 5 min at 10,000×g, and proteins (˜40 μg) were resolved by SDS-PAGE followed by semi-dry transfer to nitrocellulose membranes. Membranes were blocked in TBS-5% milk supplemented with 0.1% Tween-20. The blots were then probed overnight with relevant antibodies, washed, and incubated for 2 hours with species-specific secondary antibodies conjugated to horseradish peroxidase. After washing in block solution, immunoreactive material was detected by enhanced chemiluminescence (SuperSignal West Dura Extended, Pierce, Inc., Rockville, Ill.).
as §1

phospho-JNK1 = test: Western blot of phospho-JNK1 under ER stress, HT1080 cells; conditions: irestatins 2.5 μM, 2 hour preincubation; Tm 4 μg/ml, 1.5 hrs
Experimental: as §2
HT1080 cells were exposed to DMSO vehicle (lane 1), irestatin 9389 (2.5 μM; lane 2) for 16 hours or Tm (5 μg/ml; lane 3) for 8 hours. Following treatments, cells were harvested, lysed, and analyzed by immunoblotting using anti-Grp78 antibody (top) or anti-actin (bottom) as a loading control. […] Cell lysates were analyzed by Western immunoblotting using anti-IRE1α (bottom) or anti-phospho-IRE1α antibodies (top). […] Lysates were analyzed by Western blot using antisera specific for phospho-JNK1 (top) or total JNK1 (bottom). […]

In the case of `Cc1csc(NC(=O)CSc2nc3c(c(C(F)(F)F)c2C#N)CCC3)n1` [Compound 9389], the “levels of XBP-1s under hypoxia” value (XBP-1s; 2 μM, 24 hours of hypoxia) was “decreased levels of XBP-1s”, the “accumulation of XBP-1s following treatment with Tm” value (XBP-1s; irestatins 2 μM, Tm (4 μg/ml) 20 hours) was “blocked the accumulation of XBP-1s” and the “expression of HIF-1α” value (HIF-1α) was “not affected”. For the same compound, the “phosphorylation of JNK1 during Tm-induced ER stress” value (phospho-JNK1) was “failed to block the phosphorylation of JNK1”.
